In patent US9751854B2 (Millennium Pharmaceuticals, Inc., priority 2014, dated 2017) one finds IC50 data, which are given here for 15 molecules.

Sequence of human VPS34 (Q8NEB9 whole entry): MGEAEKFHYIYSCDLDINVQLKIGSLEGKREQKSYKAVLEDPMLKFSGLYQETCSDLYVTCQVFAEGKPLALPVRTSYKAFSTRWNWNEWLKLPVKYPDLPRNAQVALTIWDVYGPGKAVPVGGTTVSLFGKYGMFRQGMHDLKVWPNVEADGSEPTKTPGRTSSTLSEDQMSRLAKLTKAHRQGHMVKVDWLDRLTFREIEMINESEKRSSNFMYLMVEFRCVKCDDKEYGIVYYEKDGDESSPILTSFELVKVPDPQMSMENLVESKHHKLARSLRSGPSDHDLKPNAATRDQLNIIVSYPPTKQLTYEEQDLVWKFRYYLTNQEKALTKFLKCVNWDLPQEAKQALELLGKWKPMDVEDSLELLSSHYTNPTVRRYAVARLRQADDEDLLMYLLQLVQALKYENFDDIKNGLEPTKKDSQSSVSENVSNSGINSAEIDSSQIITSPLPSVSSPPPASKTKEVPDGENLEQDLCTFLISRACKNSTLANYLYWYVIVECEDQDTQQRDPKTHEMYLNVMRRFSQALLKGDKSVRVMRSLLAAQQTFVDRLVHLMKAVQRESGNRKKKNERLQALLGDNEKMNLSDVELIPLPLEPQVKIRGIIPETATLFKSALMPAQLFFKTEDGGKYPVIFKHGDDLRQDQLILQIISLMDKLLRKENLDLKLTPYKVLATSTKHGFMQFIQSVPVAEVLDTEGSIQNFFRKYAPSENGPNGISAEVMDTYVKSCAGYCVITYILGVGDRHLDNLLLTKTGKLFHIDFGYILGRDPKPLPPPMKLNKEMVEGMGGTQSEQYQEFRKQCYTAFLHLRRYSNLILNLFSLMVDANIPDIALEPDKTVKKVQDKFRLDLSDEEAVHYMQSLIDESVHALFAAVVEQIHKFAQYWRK

The experiment has as its target human VPS34 (Homo sapiens (Human), UniProt Q8NEB9). Kind of experiment: Human VPS34 enzyme assay (Adapta TR-FRET ADP detection). It counts as biochemical. As to conditions: IC50 range class. On the technique in general: In TR-FRET formats the signal depends on donor and acceptor labels being close together.
Molecule `Cc1c(-c2ccnc(Nc3ccnc(C4CC4)n3)c2)cnc(Cl)c1NS(=O)(=O)N(C)C` [Compound I-435, N′-{6-chloro-2′-[(cyclopropylpyrimidin-4-yl)amino]-4-methyl-3,4′-bipyridin-5-yl}-N,N-dimethylsulfuric diamide] had an IC50 of under 10 nM.
The molecule `CC(=O)Nc1cc(-c2cnc(NCC3CC3)c(N)c2)ccn1` [Compound I-53, N-{5-amino-6-{(cyclopropylmethyl)amino]-3,4′-bipyridin-2′-yl}acetamide] displayed an IC50 of over 100 nM.
As for `CC(=O)Nc1cc(-c2cnc(C)c(N(C)S(=O)(=O)c3ccccc3)c2)ccn1` [Compound I-46, N-{6-methyl-5-[methyl(phenylsulfonyl)amino]-3,4′-bipyridin-2′-yl}acetamide], the IC50 is 10 to 50 nM.
The value for `CC(=O)Nc1cc(-c2cnc(C)c(NS(=O)(=O)c3ccc(C)cc3F)c2)c(C)cn1` [Compound I-130, N-(5-{[(2-fluoro-4-methylphenyl)sulfonyl]amino}-5′,6-dimethyl-3,4′-bipyridin-2′-yl)acetamide] was 50 to 100 nM; that for `CC(=O)Nc1cc(-c2cnc(N)c(S(=O)(=O)Nc3ccc(Cl)cc3)c2)ccn1` [Compound I-207, N-{6-amino-5-[(4-chlorophenyl)sulfamoyl]-3,4′-bipyridin-2′-yl}acetamide] was under 10 nM.
The value for `CC(=O)Nc1cc(-c2cnc(N)c(C(=O)N3CCCCC3)c2)ccn1` [Compound I-10, N-[6-amino-5-(piperidin-1-ylcarbonyl)-3,4′-bipyridin-2′-yl]acetamide] was under 10 nM.
With `CC(=O)Nc1cc(-c2cnc3[nH]ncc3c2)ccn1` [Compound I-189, N-[4-(1H-pyrazolo[3,4-b]pyridin-5-yl)pyridin-2-yl]acetamide] the figure was 50 to 100 nM; with `COc1nccc(Nc2cc(-c3cnc(Cl)c(NS(=O)(=O)c4ccc(F)cc4F)c3C)ccn2)n1` [Compound I-225, N-{6-chloro-2′-[(2-methoxypyrimidin-4-yl)amino]-4-methyl-3,4′-bipyridin-5-yl}-2,4-difluorobenzenesulfonamide], under 10 nM; with `CC(=O)Nc1cc(-c2cnc(Cl)c(NS(=O)(=O)N3CC4CCC3C4)c2C)ccn1` (stereo not drawn) [Compound I-477, N-{5-[(2-azabicyclo[2.2.1]hept-2-ylsulfonyl)amino]-6-chloro-4-methyl-3,4′-bipyridin-2′-yl}acetamide], 10 to 50 nM.
`COC(=O)Nc1cc(-c2cnc(N)c(S(=O)(=O)N3CCCC3)c2)ccn1` [Compound I-36, methyl [6-amino-5-(pyrrolidin-1-ylsulfonyl)-3,4′-bipyridin-2′-yl]carbamate] showed a half-maximal inhibitory concentration (IC50) of under 10 nM.
With `CC(=O)Nc1cc(-c2cnc(N)c(S(=O)(=O)NCC3CCCCC3)c2)ccn1` [Compound I-183, N-{6-amino-5-[(cyclohexylmethyl)sulfamoyl]-3,4′-bipyridin-2′-yl}acetamide] the figure was under 10 nM; with `Cc1c(-c2ccnc(Nc3ccnc(C4CC4)n3)c2)cnc(Cl)c1C(=O)O` [Compound I-369, 6-chloro-2′-((2-cyclopropylpyrimidin-4-yl)amino)-4-methyl-[3,4′-bipyridine]-5-carboxylic acid], 10 to 50 nM; with `CC(=O)Nc1cc(-c2cnc(N)c(C(=O)N3CCOCC3)c2)ccn1` [Compound I-152, N-[6-amino-5-(morpholin-4-ylcarbonyl)-3,4′-bipyridin-2′-yl]acetamide], 10 to 50 nM.
`Cc1nccc(Nc2cc(-c3cnc(C)c(C(=O)NCC4CC4)c3)ccn2)n1` [Compound I-285, N-(cyclopropylmethyl)-6-methyl-2′-((2-methylpyrimidin-4-yl)amino)-[3,4′-bipyridine]-5-carboxamide] returned an IC50 of 10 to 50 nM.
With `CC(=O)Nc1cc(-c2cnc(N)c(S(=O)(=O)CCc3ccccc3)c2)ccn1` [Compound I-126, N-[6-amino-5-[(2-phenylethyl)sulfonyl]-3,4′-bipyridin-2′-yl]acetamide] the figure was 50 to 100 nM.

As usually defined, the IC50 is the concentration at which inhibition is half-maximal.
